Source: PubChem BioAssay AID2060891 (Molecular Pharmacology Branch, DTP, NCI, 2025)
Each block holds one compound with its values, some of them ahead of it.

Tested on: K98450-129-R-PDC complex spheroid growth, percent test/control
Test: Anticancer human tumor K98450-129-R-PDC patient-derived colon adenocarcinoma cell line growth inhibition [RAS]
Conditions: for IC50: curve of first compound; for viability, T/C: stronger effect = lower value
Summary of the method: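 Tumour cells grown as complex spheroids with HUVEC endothelial cells and mesenchymal stem cells, treated with RAS pathway inhibitor combinations. Each agent spans half-log steps from near clinical Cmax, or 10 microM where Cmax is unknown.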

[1] = second compound 0.000949 µM, first compound 0.0316 µM
[2] = second compound 0.000949 µM, first compound 0.1 µM
[3] = second compound 0.003 µM, first compound 0.0316 µM
[4] = second compound 0.003 µM, first compound 0.1 µM
[5] = second compound 0.00949 µM, first compound 0.0316 µM
[6] = second compound 0.00949 µM, first compound 0.1 µM
[7] = second compound 0.03 µM, first compound 0.0316 µM
[8] = second compound 0.03 µM, first compound 0.1 µM
[9] = second compound 0.0949 µM, first compound 0.0316 µM
[10] = second compound 0.0949 µM, first compound 0.1 µM
[11] = second compound 0.3 µM, first compound 0.0316 µM
[12] = second compound 0.3 µM, first compound 0.1 µM
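Also: spheroids exposed to agents for seven days before the viability readout.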
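For viability, T/C in this document: luminescence used as a proxy for viable cell amount.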

IC50 (second compound 0.000949 µM): > 10 µM
IC50 (second compound 0.003 µM): > 10 µM
IC50 (second compound 0.00949 µM): < 0.0316 µM
IC50 (second compound 0.03 µM): < 0.0316 µM
IC50 (second compound 0.0949 µM): < 0.0316 µM
IC50 (second compound 0.3 µM): < 0.0316 µM
Compound: CC(C)NCC(C(=O)N1CCN(c2ncnc3c2C(C)CC3O)CC1)c1ccc(Cl)cc1 (centres undefined) + CCn1c(-c2cccnc2C(C)OC)c2c3cc(ccc31)N1CCOC(CC(NC(=O)C(C(C)C)N(C)C(=O)C3(F)CCN(C(=O)C#CC(C)(C)N(C)C)CC3)C(=O)N3CCCC(N3)C(=O)OCC(C)(C)C2)C1
viability, T/C [1]: 64.3%
viability, T/C [2]: 61.4%
viability, T/C (second compound 0.000949 µM, first compound 0.316 µM): 83.3%
viability, T/C (second compound 0.000949 µM, first compound 1 µM): 73.7%
viability, T/C (second compound 0.000949 µM, first compound 3.16 µM): 73%
viability, T/C (second compound 0.000949 µM, first compound 10 µM): 70.4%
viability, T/C [3]: 68.8%
viability, T/C [4]: 46.6%
viability, T/C (second compound 0.003 µM, first compound 0.316 µM): 61%
viability, T/C (second compound 0.003 µM, first compound 1 µM): 51.2%
viability, T/C (second compound 0.003 µM, first compound 3.16 µM): 64.1%
viability, T/C (second compound 0.003 µM, first compound 10 µM): 47%
viability, T/C [5]: 45.4%
viability, T/C [6]: 37.7%
viability, T/C (second compound 0.00949 µM, first compound 0.316 µM): 42.9%
viability, T/C (second compound 0.00949 µM, first compound 1 µM): 34.6%
viability, T/C (second compound 0.00949 µM, first compound 3.16 µM): 50.8%
viability, T/C (second compound 0.00949 µM, first compound 10 µM): 39.6%
viability, T/C [7]: 33%
viability, T/C [8]: 39%
viability, T/C (second compound 0.03 µM, first compound 0.316 µM): 36.8%
viability, T/C (second compound 0.03 µM, first compound 1 µM): 34%
viability, T/C (second compound 0.03 µM, first compound 3.16 µM): 38.1%
viability, T/C (second compound 0.03 µM, first compound 10 µM): 35%
viability, T/C [9]: 32.4%
viability, T/C [10]: 42.1%
viability, T/C (second compound 0.0949 µM, first compound 0.316 µM): 34.7%
viability, T/C (second compound 0.0949 µM, first compound 1 µM): 36.4%
viability, T/C (second compound 0.0949 µM, first compound 3.16 µM): 36%
viability, T/C (second compound 0.0949 µM, first compound 10 µM): 34.5%
viability, T/C [11]: 31.6%
viability, T/C [12]: 38.5%
viability, T/C (second compound 0.3 µM, first compound 0.316 µM): 34.4%
viability, T/C (second compound 0.3 µM, first compound 1 µM): 32.6%
viability, T/C (second compound 0.3 µM, first compound 3.16 µM): 33.7%
viability, T/C (second compound 0.3 µM, first compound 10 µM): 32.2%

IC50 (second compound 0.000949 µM): 0.0463 µM
IC50 (second compound 0.003 µM): 0.00256 µM
IC50 (second compound 0.00949 µM): 0.000449 µM
IC50 (second compound 0.03 µM): < 0.000316 µM
IC50 (second compound 0.0949 µM): < 0.000316 µM
IC50 (second compound 0.3 µM): < 0.000316 µM
Compound: CC(C)n1nc(-c2ccc3oc(N)nc3c2)c2c(N)ncnc21 + CCn1c(-c2cccnc2C(C)OC)c2c3cc(ccc31)N1CCOC(CC(NC(=O)C(C(C)C)N(C)C(=O)C3(F)CCN(C(=O)C#CC(C)(C)N(C)C)CC3)C(=O)N3CCCC(N3)C(=O)OCC(C)(C)C2)C1
viability, T/C (second compound 0.000949 µM, first compound 0.000316 µM): 58%
viability, T/C (second compound 0.000949 µM, first compound 0.001 µM): 66.9%
viability, T/C (second compound 0.000949 µM, first compound 0.00316 µM): 65.7%
viability, T/C (second compound 0.000949 µM, first compound 0.01 µM): 63.2%
viability, T/C [1]: 50.5%
viability, T/C [2]: 41.8%
viability, T/C (second compound 0.003 µM, first compound 0.000316 µM): 58.5%
viability, T/C (second compound 0.003 µM, first compound 0.001 µM): 53.4%
viability, T/C (second compound 0.003 µM, first compound 0.00316 µM): 53%
viability, T/C (second compound 0.003 µM, first compound 0.01 µM): 38.5%
viability, T/C [3]: 40.6%
viability, T/C [4]: 31.9%
viability, T/C (second compound 0.00949 µM, first compound 0.000316 µM): 52.1%
viability, T/C (second compound 0.00949 µM, first compound 0.001 µM): 46%
viability, T/C (second compound 0.00949 µM, first compound 0.00316 µM): 34.8%
viability, T/C (second compound 0.00949 µM, first compound 0.01 µM): 33.3%
viability, T/C [5]: 30.5%
viability, T/C [6]: 28.9%
viability, T/C (second compound 0.03 µM, first compound 0.000316 µM): 35.2%
viability, T/C (second compound 0.03 µM, first compound 0.001 µM): 40%
viability, T/C (second compound 0.03 µM, first compound 0.00316 µM): 36.5%
viability, T/C (second compound 0.03 µM, first compound 0.01 µM): 23.9%
viability, T/C [7]: 29.1%
viability, T/C [8]: 25.6%
viability, T/C (second compound 0.0949 µM, first compound 0.000316 µM): 34.3%
viability, T/C (second compound 0.0949 µM, first compound 0.001 µM): 32%
viability, T/C (second compound 0.0949 µM, first compound 0.00316 µM): 32.6%
viability, T/C (second compound 0.0949 µM, first compound 0.01 µM): 28.6%
viability, T/C [9]: 30.6%
viability, T/C [10]: 22.7%
viability, T/C (second compound 0.3 µM, first compound 0.000316 µM): 29.4%
viability, T/C (second compound 0.3 µM, first compound 0.001 µM): 35%
viability, T/C (second compound 0.3 µM, first compound 0.00316 µM): 30.1%
viability, T/C (second compound 0.3 µM, first compound 0.01 µM): 27.5%
viability, T/C [11]: 25.9%
viability, T/C [12]: 23.7%
